molecular target: human, KCNT1 (Homo sapiens (Human), UniProt Q5JUK3); test: FLIPR Tl/K Flux Assay; assay type: cell-based; details: HEK293 cells stably expressing human KCNT1; Tl+ flux stimulated with EC80 of agonist Loxapine
Outline: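 Inhibition values come from a Hill-equation fit of % inhibition versus log concentration, using normalized fluorescence (Fmax/Fmin) over a 160 s read. The read followed stimulation with Tl+ plus EC80 agonist loxapine after 30 min compound pre-incubation at 25 °C. Cells were KCNT1-expressing HEK293, dye-loaded 1 h in pH 7.4 HEPES/HBSS with 5 mM probenecid.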

Chain of human, KCNT1 (Q5JUK3 whole entry): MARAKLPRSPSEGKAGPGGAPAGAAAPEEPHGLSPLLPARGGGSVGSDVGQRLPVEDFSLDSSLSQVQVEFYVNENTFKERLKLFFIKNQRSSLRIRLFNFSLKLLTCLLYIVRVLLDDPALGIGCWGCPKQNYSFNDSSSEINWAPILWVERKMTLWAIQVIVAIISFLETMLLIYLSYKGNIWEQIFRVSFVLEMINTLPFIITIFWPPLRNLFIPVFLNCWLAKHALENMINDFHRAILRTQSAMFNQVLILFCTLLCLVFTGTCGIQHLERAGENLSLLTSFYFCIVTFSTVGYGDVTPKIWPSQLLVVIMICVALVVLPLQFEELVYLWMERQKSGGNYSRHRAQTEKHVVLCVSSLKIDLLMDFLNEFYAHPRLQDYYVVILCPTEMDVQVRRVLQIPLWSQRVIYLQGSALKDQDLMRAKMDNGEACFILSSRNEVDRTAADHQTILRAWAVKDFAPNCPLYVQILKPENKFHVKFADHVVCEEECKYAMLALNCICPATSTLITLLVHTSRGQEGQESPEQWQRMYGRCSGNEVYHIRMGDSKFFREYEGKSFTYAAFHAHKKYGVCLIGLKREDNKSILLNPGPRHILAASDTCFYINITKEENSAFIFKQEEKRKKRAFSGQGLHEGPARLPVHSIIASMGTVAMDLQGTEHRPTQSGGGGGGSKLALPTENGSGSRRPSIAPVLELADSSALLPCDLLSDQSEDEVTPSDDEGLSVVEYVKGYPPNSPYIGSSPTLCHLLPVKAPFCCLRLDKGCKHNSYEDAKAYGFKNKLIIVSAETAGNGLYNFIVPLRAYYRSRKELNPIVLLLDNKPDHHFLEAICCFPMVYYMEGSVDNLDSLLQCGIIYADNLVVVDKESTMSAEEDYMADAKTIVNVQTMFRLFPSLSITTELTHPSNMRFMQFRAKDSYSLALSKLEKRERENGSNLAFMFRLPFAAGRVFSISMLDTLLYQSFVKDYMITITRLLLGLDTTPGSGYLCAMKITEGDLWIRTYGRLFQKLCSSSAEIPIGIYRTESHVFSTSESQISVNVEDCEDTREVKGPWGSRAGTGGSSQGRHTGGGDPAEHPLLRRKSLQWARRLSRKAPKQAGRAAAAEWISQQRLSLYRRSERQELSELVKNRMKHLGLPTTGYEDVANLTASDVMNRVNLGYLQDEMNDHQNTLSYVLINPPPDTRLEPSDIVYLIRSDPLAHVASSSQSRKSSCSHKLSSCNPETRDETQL

Row | Structure (SMILES) | IC50
1 | COc1cc(C(=O)N[C@H]2CCCCn3nc(-c4cc(C(F)(F)F)ncc4F)cc32)ccn1 [Compound I-194a, (S)-N-(2-(5-Fluoro-2-(trifluoromethyl)pyridin-4-yl)-5,6,7,8-tetrahydro-4H-pyrazolo[1,5-a]azepin-4-yl)-2-methoxyisonicotinamide] | < 250 nM
2 | O=C(N[C@H]1CCCn2nc(-c3cc(C(F)(F)F)ncc3F)cc21)c1cnc2ccccc2n1 [Compound I-195a, (S)-N-(2-(5-Fluoro-2-(trifluoromethyl)pyridin-4-yl)-4,5,6,7-tetrahydropyrazolo[1,5-a]pyridin-4-yl)quinoxaline-2-carboxamide] | < 250 nM
3 | COc1cc(C(=O)N[C@H]2CCc3cnc(-c4ccnc(C(F)(F)F)c4)cc32)ccn1 [Compound I-196a, (S)-2-Methoxy-N-(3-(2-(trifluoromethyl)pyridin-4-yl)-6,7-dihydro-5H-cyclopenta[c]pyridin-5-yl)isonicotinamide] | 500 to 1000 nM
4 | CCc1cc(C#N)cc(C(=O)N[C@H]2CCn3nc(-c4ccnc(C(F)(F)F)c4)cc32)c1 [Compound I-200a, (S)-3-Cyano-5-ethyl-N-(2-(2-(trifluoromethyl)pyridin-4-yl)-5,6-dihydro-4H-pyrrolo[1,2-b]pyrazol-4-yl)benzamide] | < 250 nM
5 | Cn1nc(C(F)(F)F)nc1C(=O)N[C@H]1CCn2nc(-c3ccnc(C4CC4)c3)cc21 [Compound I-205a, (S)-N-(2-(2-Cyclopropylpyridin-4-yl)-5,6-dihydro-4H-pyrrolo[1,2-b]pyrazol-4-yl)-1-methyl-3-(trifluoromethyl)-1H-1,2,4-triazole-5-carboxamide] | < 250 nM
6 | Cc1nc(C(=O)N[C@H]2CCn3nc(-c4ccnc(C(C)(F)F)c4)cc32)n(C)n1 [Compound I-206a, (S)-N-(2-(2-(1,1-Difluoroethyl)pyridin-4-yl)-5,6-dihydro-4H-pyrrolo[1,2-b]pyrazol-4-yl)-1,3-dimethyl-1H-1,2,4-triazole-5-carboxamide] | > 1000 nM
7 | O=C(N[C@H]1CCCc2oc(-c3cc(C4CC4)ncc3F)nc21)c1cncc(C(F)(F)F)n1 [Compound I-208a, (S)-N-(2-(2-Cyclopropyl-5-fluoropyridin-4-yl)-4,5,6,7-tetrahydrobenzo[d]oxazol-4-yl)-6-(trifluoromethyl)pyrazine-2-carboxamide] | < 250 nM
8 | COc1cc(-c2nc3c(o2)CCC[C@@H]3NC(=O)c2cncc(C(F)(F)F)n2)ccn1 [Compound I-211a, (S)-N-(2-(2-Methoxypyridin-4-yl)-4,5,6,7-tetrahydrobenzo[d]oxazol-4-yl)-6-(trifluoromethyl)pyrazine-2-carboxamide] | < 250 nM
9 | COc1cc(-c2cc3n(n2)CCCC[C@@H]3NC(=O)c2cc(C(F)(F)F)nn2C)c(F)cn1 [Compound I-212a, (S)-N-(2-(5-Fluoro-2-methoxypyridin-4-yl)-5,6,7,8-tetrahydro-4H-pyrazolo[1,5-a]azepin-4-yl)-1-methyl-3-(trifluoromethyl)-1H-pyrazole-5-carboxamide] | < 250 nM
10 | Cn1nc(C(F)(F)F)cc1C(=O)N[C@H]1CCCc2oc(-c3cc(C4CC4)ncc3F)nc21 [Compound I-217a, (S)-N-(2-(2-Cyclopropyl-5-fluoropyridin-4-yl)-4,5,6,7-tetrahydrobenzo[d]oxazol-4-yl)-1-methyl-3-(trifluoromethyl)-1H-pyrazole-5-carboxamide] | < 250 nM
11 | Cc1nc(C(=O)N[C@H]2CCn3nc(-c4ccnc(C5CC5)c4)cc32)n(C)n1 [Compound I-218a, (S)-N-(2-(2-Cyclopropylpyridin-4-yl)-5,6-dihydro-4H-pyrrolo[1,2-b]pyrazol-4-yl)-1,3-dimethyl-1H-1,2,4-triazole-5-carboxamide] | 250 to 500 nM
12 | CC1(C)C[C@H](NC(=O)c2cccc(C#N)c2)c2cc(-c3ccnc(C(F)(F)F)c3)nn2C1 [Compound I-220a, (S)-3-Cyano-N-(6,6-dimethyl-2-(2-(trifluoromethyl)pyridin-4-yl)-4,5,6,7-tetrahydropyrazolo[1,5-a]pyridin-4-yl)benzamide] | 250 to 500 nM
13 | COc1cc(-c2cc3n(n2)CCC[C@@H]3NC(=O)c2cccc(C#N)c2)c(C)cn1 [Compound I-222a, (S)-3-Cyano-N-(2-(2-methoxy-5-methylpyridin-4-yl)-4,5,6,7-tetrahydropyrazolo[1,5-a]pyridin-4-yl)benzamide] | < 250 nM

Now from value to molecule:

Row | IC50 | Structure (SMILES)
14 | > 1000 nM | O=C(N[C@H]1CCc2cnc(-c3ccnc(C(F)(F)F)c3)cc21)c1cncc(C(F)(F)F)n1 [Compound I-197a, (S)-6-(trifluoromethyl)-N-(3-(2-(trifluoromethyl)pyridin-4-yl)-6,7-dihydro-5H-cyclopenta[c]pyridin-5-yl)pyrazine-2-carboxamide]
15 | < 250 nM | O=C(N[C@H]1CCn2nc(-c3ccnc(C(F)(F)F)c3)cc21)c1ccnc(OC(F)(F)F)c1 [Compound I-198a, (S)-2-(Trifluoromethoxy)-N-(2-(2-(trifluoromethyl)pyridin-4-yl)-5,6-dihydro-4H-pyrrolo[1,2-b]pyrazol-4-yl)isonicotinamide]
16 | < 250 nM | O=C(N[C@H]1CCCn2nc(-c3cc(C(F)(F)F)ncc3F)cc21)c1ccnc(OC(F)(F)F)c1 [Compound I-199a, (S)-N-(2-(5-Fluoro-2-(trifluoromethyl)pyridin-4-yl)-4,5,6,7-tetrahydropyrazolo[1,5-a]pyridin-4-yl)-2-(trifluoromethoxy)isonicotinamide]
17 | < 250 nM | Cn1nc(C(F)(F)F)cc1C(=O)N[C@H]1CCCn2nc(-c3ccnc(C4CC4)c3)nc21 [Compound I-201a, (S)—N-(2-(2-Cyclopropylpyridin-4-yl)-5,6,7,8-tetrahydro-[1,2,4]triazolo[1,5-a]pyridin-8-yl)-1-methyl-3-(trifluoromethyl)-1H-pyrazole-5-carboxamide]
18 | < 250 nM | O=C(N[C@H]1CCCn2nc(-c3cc(C(F)(F)F)ncc3F)cc21)c1cnc(C(F)(F)F)cn1 [Compound I-202a, (S)-N-(2-(5-Fluoro-2-(trifluoromethyl)pyridin-4-yl)-4,5,6,7-tetrahydropyrazolo[1,5-a]pyridin-4-yl)-5-(trifluoromethyl)pyrazine-2-carboxamide]
19 | < 250 nM | Cn1nc(C(F)(F)F)nc1C(=O)N[C@H]1CCCn2nc(-c3cc(C(F)(F)F)ncc3F)cc21 [Compound I-203a, (S)-N-(2-(5-Fluoro-2-(trifluoromethyl)pyridin-4-yl)-4,5,6,7-tetrahydropyrazolo[1,5-a]pyridin-4-yl)-1-methyl-3-(trifluoromethyl)-1H-1,2,4-triazole-5-carboxamide]
20 | < 250 nM | O=C(N[C@H]1CCCn2nc(-c3cc(C(F)(F)F)ncc3F)cc21)c1cncc(C(F)(F)F)n1 [Compound I-204a, (S)-N-(2-(5-Fluoro-2-(trifluoromethyl)pyridin-4-yl)-4,5,6,7-tetrahydropyrazolo[1,5-a]pyridin-4-yl)-6-(trifluoromethyl)pyrazine-2-carboxamide]
21 | < 250 nM | COc1cncc(C(=O)N[C@H]2CCn3nc(-c4ccnc(C(F)(F)F)c4)cc32)n1 [Compound I-207a, (S)-6-Methoxy-N-(2-(2-(trifluoromethyl)pyridin-4-yl)-5,6-dihydro-4H-pyrrolo[1,2-b]pyrazol-4-yl)pyrazine-2-carboxamide]
22 | < 250 nM | Cn1nc(C(F)(F)F)cc1C(=O)N[C@H]1CCCn2nc(-c3cc(C(F)(F)F)ncc3F)cc21 [Compound I-209a, (S)-N-(2-(5-Fluoro-2-(trifluoromethyl)pyridin-4-yl)-4,5,6,7-tetrahydropyrazolo[1,5-a]pyridin-4-yl)-1-methyl-3-(trifluoromethyl)-1H-pyrazole-5-carboxamide]
23 | < 250 nM | COc1nc(C(=O)N[C@H]2CCn3nc(-c4ccnc(C(F)(F)F)c4)cc32)n(C)n1 [Compound I-210a, (S)-3-Methoxy-1-methyl-N-(2-(2-(trifluoromethyl)pyridin-4-yl)-5,6-dihydro-4H-pyrrolo[1,2-b]pyrazol-4-yl)-1H-1,2,4-triazole-5-carboxamide]
24 | < 250 nM | O=C(N[C@H]1CCCn2nc(-c3ccnc(C(F)(F)F)c3)cc21)c1ccnc(OC(F)(F)F)c1 [Compound I-213a, (S)-2-(Trifluoromethoxy)-N-(2-(2-(trifluoromethyl)pyridin-4-yl)-4,5,6,7-tetrahydropyrazolo[1,5-a]pyridin-4-yl)isonicotinamide]
25 | < 250 nM | COc1cc(C(=O)N[C@H]2CCCn3nc(-c4ccnc(C(F)(F)F)c4)nc32)ccn1 [Compound I-214a, (S)-2-Methoxy-N-(2-(2-(trifluoromethyl)pyridin-4-yl)-5,6,7,8-tetrahydro-[1,2,4]triazolo[1,5-a]pyridin-8-yl)isonicotinamide]
26 | < 250 nM | O=C(N[C@H]1CCCn2nc(-c3ccnc(C(F)(F)F)c3)nc21)c1cncc(C(F)(F)F)n1 [Compound I-215a, (S)-6-(Trifluoromethyl)-N-(2-(2-(trifluoromethyl)pyridin-4-yl)-5,6,7,8-tetrahydro-[1,2,4]triazolo[1,5-a]pyridin-8-yl)pyrazine-2-carboxamide]
27 | < 250 nM | Cc1nc(C(F)(F)F)oc1C(=O)N[C@H]1CCCn2nc(-c3ccnc(C(F)(F)F)c3)nc21 [Compound I-216a, (S)-4-Methyl-2-(trifluoromethyl)-N-(2-(2-(trifluoromethyl)pyridin-4-yl)-5,6,7,8-tetrahydro-[1,2,4]triazolo[1,5-a]pyridin-8-yl)oxazole-5-carboxamide]
28 | > 1000 nM | Cn1nc(C(F)(F)F)cc1C(=O)N[C@H]1CC(C)(C)Cn2nc(-c3ccnc(C(F)(F)F)c3)cc21 [Compound I-219a, (S)—N-(6,6-Dimethyl-2-(2-(trifluoromethyl)pyridin-4-yl)-4,5,6,7-tetrahydropyrazolo[1,5-a]pyridin-4-yl)-1-methyl-3-(trifluoromethyl)-1H-pyrazole-5-carboxamide]
29 | < 250 nM | Cc1nc(C(=O)N[C@H]2CCn3nc(-c4ccnc(C(F)(F)F)c4)cc32)n(C)n1 [Compound I-221a, (S)-1,3-Dimethyl-N-(2-(2-(trifluoromethyl)pyridin-4-yl)-5,6-dihydro-4H-pyrrolo[1,2-b]pyrazol-4-yl)-1H-1,2,4-triazole-5-carboxamide]

— patent US20250313548A1 (Actio Biosciences, Inc., priority 2023, published 2025)
